Seven compounds from ChEMBL document CHEMBL5226306, “Intestinal Excretion, Intestinal Recirculation, and Renal Tubule Reabsorption Are Underappreciated Mechanisms That Drive the Distribution and Pharmacokinetic Behavior of Small Molecule Drugs” (J Med Chem, 2021) can be followed below.

Each structure is given as a SMILES string.

Data set [1] can be described thus: Clearance in dog bile. The data set is classed as ADME, tissue-based, Canis lupus familiaris. The conditions noted are these: in vivo.
Data set [2] can be described thus: Unbound fraction in human plasma. The class given is ADME, cell-free.
Data set [3] is described as follows: Total systemic clearance in dog. The data set is classed as ADME, Canis lupus familiaris. Conditions: in vivo.
Data set [4] in a line: Volume of distribution in human.
Data set [5] is described as follows: Tubular reabsorption in dog. The class given is ADME, Canis lupus familiaris.
Data set [6] is described as follows: Intestinal clearance in rat. The class given is ADME. The conditions noted are these: in vivo.
The nature of data set [7]: Drug excretion in BDC dog urine. The class given is ADME, tissue-based, Canis lupus familiaris.
Data set [8] can be described thus: Renal excretion in rat. The data set is classed as ADME, tissue-based, Kidney. Conditions: in vivo, read-out: Drug excretion (converted).
A short description of data set [9]: Clearance in rat urine. The class given is ADME, tissue-based.
The nature of data set [10]: Renal clearance in dog. The data set is classed as ADME, tissue-based, Canis lupus familiaris, Kidney. Conditions: in vivo.
Data set [11] is described as follows: Elimination half life in human.
Data set [12] is described as follows: Total plasma clearance in dog assessed as hepatic blood flow. The data set is classed as ADME, cell-free, Canis lupus familiaris.
A short description of data set [13]: Drug excretion in rat bile. The class given is ADME, tissue-based. The conditions noted are these: read-out: Drug excretion.
Data set [14] can be described thus: Oral bioavailability in human. The data set is classed as ADME, organism-based. Conditions: in vivo.
Data set [15] in a line: Intestinal clearance in human. The class given is ADME.
Data set [16] can be described thus: Total plasma clearance in rat assessed as hepatic blood flow. The data set is classed as ADME, cell-free.
Data set [17] in a line: Total plasma clearance in human assessed as hepatic blood flow. The data set is classed as ADME, cell-free.
Data set [18] is described as follows: in vivo. The conditions noted are these: rat, po.
Data set [19] can be described thus: Intestinal clearance in dog. The class given is ADME, Canis lupus familiaris. Conditions: in vivo.
A short description of data set [20]: Drug elimination in human urine. The class given is ADME, tissue-based. The conditions noted are these: read-out: Drug excretion.
The nature of data set [21]: in vivo. Conditions: rat.
The nature of data set [22]: Intestinal excretion in iv dosed dog. The class given is ADME, organism-based, Canis lupus familiaris, Intestine. Conditions: in vivo, read-out: Drug excretion.
Data set [23] can be described thus: Drug recovery in IV dosed BDC rat feces. The class given is ADME, organism-based. The conditions noted are these: faeces, read-out: Drug recovery.
A short description of data set [24]: Intestinal excretion in iv dosed rat. The data set is classed as ADME, organism-based, Intestine. Conditions: in vivo, read-out: Drug excretion.
A short description of data set [25]: Total systemic clearance in rat. The class given is ADME. The conditions noted are these: in vivo.

Turning to `CS(=O)(=O)c1ccc(C(=O)Nc2ccc(Cl)c(-c3ccccn3)c2)c(Cl)c1` [VISMODEGIB], the CL turned out to be 0.0024 L/h/kg in [1] and 19% in data set [3]. The free fraction (fraction unbound) (usually the share of the substance not bound to proteins or other matrix) in data set [2] turned out to be 0.01.

`CC(C)(O)[C@H](F)CN1Cc2cc(NC(=O)c3cnn4cccnc34)c(N3CCOCC3)cc2C1=O`: in data set [2], the Fu came out at 0.01.

On to `COc1ccc(-n2nc(C(N)=O)c3c2C(=O)N(c2ccc(N4CCCCC4=O)cc2)CC3)cc1` [APIXABAN], for which the Vd – broadly, the apparent volume that relates the amount in the body to the concentration in plasma or blood – in [4] was found to be 0.3 L/kg. In addition, the Drug absorption in data set [5] is 0.029 L/h/kg. Besides, the CL was greater than 20% in data set [6], greater than 27% in data set [15] and greater than 42% in data set [19]. Moreover, the results for the dose excreted in data set [7], in [13] and in data set [20] were 21%, 10% and 27%, respectively. Further, the values for the CL renal in data set [8], in data set [9] and in data set [10] were 0.013 L/h/kg, 0.71 L/h/kg and 0.02 L/h/kg, respectively. Also, the half-life (usually the time in which the quantity being followed falls by half) in data set [11] is 12 h. The QH in data set [12], in data set [16] and in data set [17] was less than 5% in each case. In addition, the fraction unbound in [2] came out at 0.07. Further, the bioavailability – broadly, dose-corrected exposure relative to a reference, in per cent – in data set [14] turned out to be 49%. Besides, the Tmax (as a rule, the time at which the peak concentration occurs) in “in vivo [18]” was determined as 2 h.

For `C[C@H]1O[C@@H](O[C@H]2[C@@H](O)C[C@H](O[C@H]3[C@@H](O)C[C@H](O[C@H]4CC[C@@]5(C)[C@H](CC[C@@H]6[C@@H]5C[C@@H](O)[C@]5(C)[C@@H](C7=CC(=O)OC7)CC[C@]65O)C4)O[C@@H]3C)O[C@@H]2C)C[C@H](O)[C@@H]1O` [DIGOXIN], the Fu in data set [2] was determined as 0.2.

Consider `CCOc1ccc(Cc2cc([C@@H]3O[C@H](CO)[C@@H](O)[C@H](O)[C@H]3O)ccc2Cl)cc1` [DAPAGLIFLOZIN], for which the free fraction (fraction unbound) in data set [2] was determined as 0.085. This compound had a CL renal in “in vivo [21]” of 0.0048 L/h/kg.

As for `COc1ccc(-n2nc(C(N)=O)c3c2C(=O)N(c2ccc(N4CCCC[14C]4=O)cc2)CC3)cc1`, the dose excreted in data set [22], in data set [23] and in data set [24] was 20% each time. Moreover, the CL in [25] worked out at 20%.

Compound `O=C1CN(/N=C/c2ccc([N+](=O)[O-])o2)C(=O)N1` [NITROFURANTOIN] showed a fraction unbound in [2] of 0.4.
